# Experimental data taken from ChEMBL document CHEMBL3046343, “Responses of the cabbage seedpod weevil, Ceutorhynchus obstrictus (Marsham) (Coleoptera: Curculionidae), to seed treatments of canola (Brassica napus L.) with the neonicotinoid compounds clothianidin and imidacloprid” (2009).
# Calls of active or inactive are those of the source. No cut-off for these calls is given here.
# Experiments:
# Ceutorhynchus obstrictus [1] = experiment: Inhibition of emergence of new-generation Ceutorhynchus obstrictus adults from soil harboring Brassica napus L. Ryder plant developed from compound treated seeds at 600 g/L FS measured for 5 weeks relative to lindane; assay type: functional
# Ceutorhynchus obstrictus [2] = experiment: Inhibition of Ceutorhynchus obstrictus preimaginal development in Brassica napus L. Ryder pods of plant developed from compound treated seeds assessed as decrease in number of exit holes formed per pod by third-instar larvae at 600 g/L FS; assay type: functional, organism-based
# Contarinia nasturtii = experiment: Inhibition of Contarinia nasturtii larval development in Brassica oleracea L. var italica plant developed from compound pretreated seeds at 4.5 g AI per 100 g seed measured at 4-5 weeks after planting; assay type: functional; design: scale not given: the % may be the effect or the level left
# Ceutorhynchus obstrictus [3] = experiment: Inhibition of Ceutorhynchus obstrictus preimaginal development in Brassica napus L. Ryder pods of plant developed from compound treated seeds assessed as decrease in number of third-instar larvae at 600 g/L FS by microscopic analysis; assay type: functional, organism-based
# Ceutorhynchus obstrictus [4] = experiment: Inhibition of Ceutorhynchus obstrictus preimaginal development in Brassica napus L. Ryder pods of plant developed from compound treated seeds assessed as decrease in number of second-instar larvae at 600 g/L FS by microscopic analysis; assay type: functional, organism-based
# Ceutorhynchus obstrictus [5] = experiment: Inhibition of Ceutorhynchus obstrictus preimaginal development in Brassica napus L. Ryder pods of plant developed from compound treated seeds assessed as effect on number of first-instar larvae at 600 g/L FS by microscopic analysis; assay type: functional, organism-based
# Ceutorhynchus obstrictus [6] = experiment: Effect on Ceutorhynchus obstrictus oviposition in Brassica napus L. Ryder pods of plant developed from compound treated seeds assessed as number of eggs deposited at 600 g/L FS by microscopic analysis; assay type: functional, organism-based
# Ceutorhynchus obstrictus [7] = experiment: Inhibition of Ceutorhynchus obstrictus development in canola pods of plant developed from compound treated seeds assessed as decrease in number of exit holes formed by larvae at 0.30 kg AI per 45.36 kg seeds; assay type: functional
# Ceutorhynchus obstrictus [8] = experiment: Inhibition of Ceutorhynchus obstrictus development in canola pods of plant developed from compound treated seeds assessed as decrease in number of exit holes formed by larvae at 0.23 kg AI per 45.36 kg seeds; assay type: functional
# Ceutorhynchus obstrictus [9] = experiment: Inhibition of emergence of new-generation Ceutorhynchus obstrictus adults from soil harboring Brassica napus L. Ryder plant developed from compound treated seeds at 800 g/L FS measured for 5 weeks relative to lindane; assay type: functional
# Ceutorhynchus obstrictus [10] = experiment: Inhibition of Ceutorhynchus obstrictus preimaginal development in Brassica napus L. Ryder pods of plant developed from compound treated seeds assessed as decrease in number of exit holes formed per pod by larvae at 800 g/L FS; assay type: functional, organism-based
# Ceutorhynchus obstrictus [11] = experiment: Inhibition of Ceutorhynchus obstrictus preimaginal development in Brassica napus L. Ryder pods of plant developed from compound treated seeds assessed as decrease in number of third-instar larvae at 800 g/L FS by microscopic analysis; assay type: functional, organism-based
# Ceutorhynchus obstrictus [12] = experiment: Inhibition of Ceutorhynchus obstrictus preimaginal development in Brassica napus L. Ryder pods of plant developed from compound treated seeds assessed as decrease in number of second-instar larvae at 800 g/L FS by microscopic analysis; assay type: functional, organism-based
# Ceutorhynchus obstrictus [13] = experiment: Inhibition of Ceutorhynchus obstrictus preimaginal development in Brassica napus L. Ryder pods of plant developed from compound treated seeds assessed as effect on number of first-instar larvae at 800 g/L FS by microscopic analysis; assay type: functional, organism-based
# Ceutorhynchus obstrictus [14] = experiment: Effect on Ceutorhynchus obstrictus oviposition in Brassica napus L. Ryder pods of plant developed from compound treated seeds assessed as number of eggs deposited at 800 g/L FS by microscopic analysis; assay type: functional, organism-based
# Ceutorhynchus obstrictus [15] = experiment: Inhibition of Ceutorhynchus obstrictus development in canola pods of plant developed from compound treated seeds assessed as decrease in number of exit holes formed by larvae at 0.28 kg AI per 45.36 kg seeds relative to untreated control; assay type: functional
# Ceutorhynchus obstrictus [16] = experiment: Inhibition of Ceutorhynchus obstrictus development in canola pods of plant developed from compound treated seeds assessed as decrease in number of exit holes formed by larvae at 0.28 kg AI per 45.36 kg seeds; assay type: functional
# Ceutorhynchus obstrictus [17] = experiment: Inhibition of Ceutorhynchus obstrictus development in canola pods of plant developed from compound treated seeds assessed as decrease in number of exit holes formed by larvae at 0.45 kg AI per 45.36 kg seeds relative to untreated control; assay type: functional
# Ceutorhynchus obstrictus [18] = experiment: Inhibition of Ceutorhynchus obstrictus development in canola pods of plant developed from compound treated seeds assessed as decrease in number of exit holes formed by larvae at 0.38 kg AI per 45.36 kg seeds relative to untreated control; assay type: functional
# Ceutorhynchus obstrictus [19] = experiment: Inhibition of Ceutorhynchus obstrictus development in canola pods of plant developed from compound treated seeds assessed as decrease in number of exit holes formed by larvae at 0.30 kg AI per 45.36 kg seeds relative to untreated control; assay type: functional
# Ceutorhynchus obstrictus [20] = experiment: Inhibition of Ceutorhynchus obstrictus development in canola pods of plant developed from compound treated seeds assessed as decrease in number of exit holes formed by larvae at 0.23 kg AI per 45.36 kg seeds relative to untreated control; assay type: functional
# Ceutorhynchus obstrictus [21] = experiment: Inhibition of Ceutorhynchus obstrictus development in canola pods of plant developed from compound treated seeds assessed as decrease in number of exit holes formed by larvae at 0.45 kg AI per 45.36 kg seeds; assay type: functional
# Ceutorhynchus obstrictus [22] = experiment: Inhibition of Ceutorhynchus obstrictus development in canola pods of plant developed from compound treated seeds assessed as decrease in number of exit holes formed by larvae at 0.38 kg AI per 45.36 kg seeds; assay type: functional
# Ceutorhynchus obstrictus [23] = experiment: Ratio of compound to imidacloprid for exit holes formed in Brassica napus L. Ryder pod by […] larvae of Ceutorhynchus obstrictus; assay type: functional
# Ceutorhynchus obstrictus [24] = experiment: Ratio of compound to clothianidin for exit holes formed in Brassica napus L. Ryder pods by Ceutorhynchus obstrictus larvae; assay type: functional
# Ceutorhynchus obstrictus [25] = experiment: Inhibition of Ceutorhynchus obstrictus preimaginal development in Brassica napus L. Ryder pods of plant developed from compound treated seeds assessed as effect on number of first-instar larvae at 1351 g per 100 kg seeds by microscopic analysis; assay type: functional, organism-based
# Ceutorhynchus obstrictus [26] = experiment: Effect on Ceutorhynchus obstrictus oviposition in Brassica napus L. Ryder pods of plant developed from compound treated seeds assessed as number of eggs deposited at 1351 g per 100 kg seeds by microscopic analysis; assay type: functional, organism-based
smiles,measurement,setting,value
CN/C(=N\[N+](=O)[O-])NCc1cnc(Cl)s1 [CLOTHIANIDINE],inhibition (INH),Ceutorhynchus obstrictus [1],52.2%
same,inhibition,Ceutorhynchus obstrictus [2],Active
same,Activity,Contarinia nasturtii,100%
same,inhibition,Ceutorhynchus obstrictus [3],Active
same,inhibition,Ceutorhynchus obstrictus [4],Active
same,inhibition,Ceutorhynchus obstrictus [5],inactive
same,Activity,Ceutorhynchus obstrictus [6],inactive
O=[N+]([O-])/N=C1\NCCN1Cc1ccc(Cl)nc1 [IMIDACLOPRID],inhibition (INH),Ceutorhynchus obstrictus [7],96%
same,inhibition (INH),Ceutorhynchus obstrictus [8],88%
same,inhibition (INH),Ceutorhynchus obstrictus [9],39.4%
same,inhibition,Ceutorhynchus obstrictus [10],Active
same,inhibition,Ceutorhynchus obstrictus [11],Active
same,inhibition,Ceutorhynchus obstrictus [12],Active
same,inhibition,Ceutorhynchus obstrictus [13],inactive
same,Activity,Ceutorhynchus obstrictus [14],inactive
same,Activity,Contarinia nasturtii,100%
same,fold change (FC),Ceutorhynchus obstrictus [15],2.2
same,inhibition (INH),Ceutorhynchus obstrictus [16],100%
same,fold change (FC),Ceutorhynchus obstrictus [17],2.4
same,fold change (FC),Ceutorhynchus obstrictus [18],2
same,fold change (FC),Ceutorhynchus obstrictus [19],2.1
same,fold change (FC),Ceutorhynchus obstrictus [20],1.9
same,inhibition (INH),Ceutorhynchus obstrictus [21],100%
same,inhibition (INH),Ceutorhynchus obstrictus [22],98%
Cl[C@H]1[C@H](Cl)[C@@H](Cl)[C@@H](Cl)[C@H](Cl)[C@H]1Cl [LINDANE],fold change (FC),Ceutorhynchus obstrictus [23],2
same,fold change (FC),Ceutorhynchus obstrictus [24],2.5
same,inhibition,Ceutorhynchus obstrictus [25],inactive
same,Activity,Ceutorhynchus obstrictus [26],inactive
